Test results: patent US10507208B2, “Compositions, packaged pharmaceuticals, and methods of using hedgehog pathway modulators for the sensitization of resistant tumors” (priority 2015, dated 2019)

Assays:
Type in all cases: cell-based
[1] = test system: H295 (adrenal cortical carcinoma) cells; test: MTT assay, sensitization to vincristine or docetaxel in H295 cells; conditions: vincristine or docetaxel plus sensitizer at 10, 1 or 0.1 micromolar, versus chemotherapy alone, FIGS. 10A-10H
Method: (§1) Cancer cells grown in vitro are treated with chemotherapy drugs alone or simultaneously with a hedgehog pathway modulator, including itraconazole. The difference in cell death between cells treated with chemotherapy drugs alone or in simultaneous treatment with the hedgehog pathway modulators determines the degree of synergistic killing effect of the combination therapy.
(§2) Cell culture: The H295 cell line was grown in DMEM (Dulbecco's Modified Eagles Medium), supplemented with insulin, transferring, and selenium, 10% Fetal bovine serum, and gentamicin. The Kelly cell line was grown in DMEM, supplemented with 10% Fetal bovine serum, and gentamicin. Cell-based experiments were conducted in a 37 degree incubator supplemented with 5% carbon dioxide.
(§3) In vitro Pharmacology: H295 cells were plated in a 96-well dish at a density of 10000 cells per well and Kelly cells were plated at a density of 2000 cells per well. After 16 hours, cells were treated with 2-fold dilutions of vincristine (VCR) or docetaxel (DTX).
(§4) MTT Assay: Drug containing media from all of the dishes were discarded and MTT solution was added at a concentration of 5 micrograms per ml. The dishes were returned to the incubator for 4 hours.

[2] = test system: Kelly (neuroblastoma) cells; test: MTT assay, sensitization to vincristine or docetaxel in Kelly cells; conditions: vincristine or docetaxel plus sensitizer at 10, 1 or 0.1 micromolar, versus chemotherapy alone, FIGS. 10A-10H
Method: as §1, §2, §3, §4

[3] = test system: HeLa (cervical cancer) cells; test: MTT assay, sensitization to vincristine or docetaxel in HeLa cells; conditions: HeLa cells (pre-exposed to chemotherapy, second-line model); sensitizer 10, 1 or 0.1 micromolar; FIGS. 10I-10L

CC1=C2C[C@H]3[C@@H](CC=C4C[C@@H](O)CC[C@@]43C)[C@@H]2CC[C@]12O[C@@H]1C[C@H](C)CN[C@H]1[C@H]2C [cyclopamine]
concentration of chemotherapy necessary to stop proliferation as well as kill half of the amount of cells (IC50) [1]: remains less than concentration of chemotherapy alone
concentration of chemotherapy necessary to stop proliferation as well as kill half of the amount of cells (IC50) [2]: remains less than concentration of chemotherapy alone
sensitization to vincristine and docetaxel [3]: did not respond
